Common to all, as to type: cell-based
The target of test [1] is T1, AHR (Homo sapiens, UniProt P35869).
T1 sequence (P35869 11-848): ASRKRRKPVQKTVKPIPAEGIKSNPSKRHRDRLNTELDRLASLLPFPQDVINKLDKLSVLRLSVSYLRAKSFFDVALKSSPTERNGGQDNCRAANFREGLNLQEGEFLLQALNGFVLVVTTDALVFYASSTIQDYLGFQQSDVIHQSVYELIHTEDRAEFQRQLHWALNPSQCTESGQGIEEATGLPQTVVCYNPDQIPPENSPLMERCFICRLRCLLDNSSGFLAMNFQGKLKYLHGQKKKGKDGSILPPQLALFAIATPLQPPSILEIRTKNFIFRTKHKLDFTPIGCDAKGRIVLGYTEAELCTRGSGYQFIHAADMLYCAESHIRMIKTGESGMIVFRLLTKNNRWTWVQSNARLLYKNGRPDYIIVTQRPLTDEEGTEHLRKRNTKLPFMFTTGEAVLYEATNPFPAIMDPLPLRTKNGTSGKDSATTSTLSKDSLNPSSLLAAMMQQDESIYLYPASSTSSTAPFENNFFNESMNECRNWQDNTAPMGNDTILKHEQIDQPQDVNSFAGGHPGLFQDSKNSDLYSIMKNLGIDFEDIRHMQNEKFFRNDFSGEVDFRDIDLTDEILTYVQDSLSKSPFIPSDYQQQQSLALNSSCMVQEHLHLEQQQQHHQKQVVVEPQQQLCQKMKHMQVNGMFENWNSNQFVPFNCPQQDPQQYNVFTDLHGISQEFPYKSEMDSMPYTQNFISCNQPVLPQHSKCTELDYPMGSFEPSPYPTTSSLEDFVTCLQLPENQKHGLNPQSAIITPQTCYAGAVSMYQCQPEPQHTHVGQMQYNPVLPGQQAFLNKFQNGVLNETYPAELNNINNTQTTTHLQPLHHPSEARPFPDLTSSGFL
The test is described as follows: In vitro assay 3: AHR-regulated CYP1A1 expression in human cell line (U937, qPCR, KA stimulation). As to conditions: U937 cells, 200 uM KA, 6 hours, CYP1A1 expression by qPCR; read-out: Assay 3: Hum CYP1A1 Antagonism IC50. The method in brief:
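U937 human monocytic cells were stimulated with 200 uM KA for 6 h, with or without compound at eight concentrations from 1 nM to 3 uM, in duplicate. CYP1A1 mRNA was quantified by Taqman qPCR as fold expression normalised to HPRT. Unstimulated cells served as negative control.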
A general note: Quantitative PCR measures a nucleic acid by following its amplification.

The target in test [2] is T1, AHR. Kind of test: In vitro assay 2: agonism in human cell line (transactivation assay, U87 cells, DRE firefly luciferase reporter). As to conditions: no kynurenic acid, 20 hours, read-out: Assay 2: AHR-luc Hum Agonism IC50. Also noted: host or cells: U87 glioblastoma cells, stably transfected with DRE firefly luciferase and renilla reporter constructs. The method in brief:
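Agonist readout: DRE firefly luciferase, with constitutive renilla reporter, in stably transfected U87 cells expressing AHR endogenously. Normalization used positive control (300 uM kynurenic acid) and negative control.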

For test [3], the target named is T1, AHR. Kind of test: In vitro assay 1: antagonism in human cell line (transactivation assay, U87 cells prestimulated with kynurenic acid, DRE firefly luciferase reporter). As to conditions: 150 uM kynurenic acid, 20 hours, read-out: Assay 1: AHR-luc Hum Antagonism IC50. Also noted: host or cells: U87 glioblastoma cells, stably transfected with DRE firefly luciferase and renilla reporter constructs. Put shortly:
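Antagonism measured after kynurenic acid prestimulation in U87 cells that express AHR endogenously and stably harbor a firefly luciferase gene under DRE control plus a constitutive renilla construct. Positive and negative controls served for normalization.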
On the technique in general: In a reporter assay the amount or activity of a reporter protein is the signal.

Structures are written as SMILES. A value given as a limit tells only on which side of the number the result lay.

What is called IC50 is the concentration at which inhibition is half-maximal.

As for `O=C(NC[C@H](O)CO)c1cc(-c2ccc(Cl)cc2)nn(-c2cccnc2)c1=O` [Example 72, (−)-6-(4-Chlorophenyl)-N-[(2S)-2,3-dihydroxypropyl]-3-oxo-2-(pyridin-3-yl)-2,3-dihydropyridazine-4-carboxamide], the half-maximal inhibitory concentration (IC50) in test [1] is 495 nM; in test [2] it was above 20000 nM; in test [3], 182 nM.

For the molecule `O=C(N[C@H]1COC[C@H]1O)c1cc(-c2ccc(Cl)cc2)nn(-c2cccnc2)c1=O` (single isomer, unassigned) [Example 173, 6-(4-Chlorophenyl)-N-[(cis)-4-hydroxytetrahydrofuran-3-yl]-3-oxo-2-(pyridin-3-yl)-2,3-dihydropyridazine-4-carboxamide], the IC50 in test [1] is 140 nM; in test [2], above 20000 nM; in test [3], 54.9 nM.

Regarding `O=C(N[C@H]1CCC[C@@H]1O)c1cc(-c2ccc(Cl)cc2)nn(-c2cccnc2)c1=O` [Example 130, 6-(4-Chlorophenyl)-N-[(1S,2S)-2-hydroxycyclopentyl]-3-oxo-2-(pyridin-3-yl)-2,3-dihydropyridazine-4-carboxamide], the values for the IC50 in test [1], in test [2] and in test [3] were 6.42 nM, above 20000 nM and 6.54 nM, respectively.

Regarding `O=C(N[C@@H]1COC[C@@H]1O)c1cc(-c2ccc(C(F)(F)F)cc2)nn(-c2cccnc2)c1=O` (single isomer, unassigned) [Example 229, (+)-N-cis-4-Hydroxytetra-hydrofuran-3-yl-3-oxo-2-(pyridin-3-yl)-6-[4-(trifluoromethyl)phenyl]-2,3-dihydropyridazine-4-carboxamide], the figures for the IC50 in test [1], in test [2] and in test [3] were 12.2 nM, above 20000 nM and 7.09 nM, respectively.

Regarding `Cn1cc(-n2nc(-c3ccc(C(F)(F)F)cc3)cc(C(=O)N[C@H](CO)C3CC3)c2=O)cn1` [Example 238, N-[(1S)-1-Cyclopropyl-2-hydroxyethyl]-2-(1-methyl-1H-pyrazol-4-yl)-3-oxo-6-[4-(trifluoromethyl)phenyl]-2,3-dihydropyridazine-4-carboxamide], the IC50 was 14.7 nM in test [1], above 20000 nM in test [2] and 9.88 nM in test [3].

With `O=C(N[C@H]1COC[C@H]1O)c1cc(-c2ccc(OC(F)(F)F)cc2)nn(-c2cccnc2)c1=O` (single isomer, unassigned; enantiomer 2) [Example 159, N-[(cis)-4-Hydroxytetrahydrofuran-3-yl]-3-oxo-2-(pyridin-3-yl)-6-[4-(trifluoromethoxy)phenyl]-2,3-dihydropyridazine-4-carboxamide, Enantiomer 2], the figures for the IC50 in test [1], in test [2] and in test [3] were 97.9 nM, above 20000 nM and 57 nM, respectively.

Consider `Cn1cc(-n2nc(-c3ccc(Cl)cc3)cc(C(=O)NCC(C)(C)O)c2=O)cn1` [Example 32, 6-(4-Chlorophenyl)-N-(2-hydroxy-2-methylpropyl)-2-(1-methyl-1H-pyrazol-4-yl)-3-oxo-2,3-dihydropyridazine-4-carboxamide], for which the IC50 in test [1] is 21.9 nM; in test [2] it was above 20000 nM; in test [3] it was 35.6 nM.

On to `C[C@@H](CO)NC(=O)c1cc(-c2ccc(N(C)C)cc2)nn(-c2cnn(C)c2)c1=O` [Example 311, 6-[4-(Dimethylamino)phenyl]-N-[(2S)-1-hydroxypropan-2-yl]-2-(1-methyl-1H-pyrazol-4-yl)-3-oxo-2,3-dihydropyridazine-4-carboxamide], for which the 50% inhibitory concentration (IC50) in test [1] is 1.03 nM; in test [2], above 20000 nM; in test [3], 1.82 nM.

On to `Cn1cc(-n2nc(-c3ccc(C(F)(F)F)cc3)cc(C(=O)N[C@H]3CCC[C@H]3O)c2=O)cn1` [Example 204, N-[(1S,2R)-2-Hydroxycyclopentyl]-2-(1-methyl-1H-pyrazol-4-yl)-3-oxo-6-[4-(trifluoromethyl)phenyl]-2,3-dihydropyridazine-4-carboxamide], for which the figures for the IC50 in test [1], in test [2] and in test [3] were 1.55 nM, above 20000 nM and 1 nM, respectively.

Consider `Cn1cc(-n2nc(-c3ccc(Cl)cc3)cc(C(=O)N[C@@H]3COC[C@@H]3O)c2=O)cn1` (single isomer, unassigned; enantiomer 2) [Example 45, 6-(4-Chlorophenyl)-N-[(cis)-4-hydroxytetrahydrofuran-3-yl]-2-(1-methyl-1H-pyrazol-4-yl)-3-oxo-2,3-dihydropyridazine-4-carboxamide, Enantiomer 2], for which the IC50 is 83.5 nM in test [1], above 20000 nM in test [2] and 41.5 nM in test [3].

For the molecule `Cn1cc(-n2nc(-c3ccc(Cl)cc3)cc(C(=O)N[C@@H](C#N)CO)c2=O)cn1` [Example 227, 6-(4-Chlorophenyl)-N-[(1S)-1-cyano-2-hydroxyethyl]-2-(1-methyl-1H-pyrazol-4-yl)-3-oxo-2,3-dihydropyridazine-4-carboxamide], the IC50 in test [1] is 11.6 nM; in test [2] it was above 20000 nM; in test [3], 5.99 nM.

Consider `CC(C)(O)CNC(=O)c1cc(-c2ccc(OC(F)(F)F)cc2)nn(-c2cccnc2)c1=O` [Example 292, N-(2-Hydroxy-2-methylpropyl)-3-oxo-2-(pyridin-3-yl)-6-[4-(trifluoromethoxy)phenyl]-2,3-dihydropyridazine-4-carboxamide], for which the half-maximal inhibitory concentration (IC50) in test [1] is 43.3 nM; in test [2] it was above 20000 nM; in test [3], 45.9 nM.

Take `O=C(NC(CO)C1CC1)c1cc(-c2ccc(Cl)cc2)nn(-c2cccnc2)c1=O` (racemic) [Example 77, 6-(4-Chlorophenyl)-N-[(1RS)-1-cyclopropyl-2-hydroxyethyl]-3-oxo-2-(pyridin-3-yl)-2,3-dihydropyridazine-4-carboxamide]: the IC50 in test [1] was 8.7 nM; in test [2], above 20000 nM; in test [3] it was 11.2 nM.

Consider `O=C(N[C@H]1CCC[C@@H]1O)c1cc(-c2ccc(C(F)F)cc2)nn(-c2cccnc2)c1=O` [Example 139, 6-[4-(Difluoromethyl)phenyl]-N-[(1S,2S)-2-hydroxycyclopentyl]-3-oxo-2-(pyridin-3-yl)-2,3-dihydropyridazine-4-carboxamide], for which the half-maximal inhibitory concentration (IC50) is 9.16 nM in test [1], above 20000 nM in test [2] and 9.2 nM in test [3].

Consider `O=C(N[C@H](CO)C(F)(F)F)c1cc(-c2ccc(C(F)(F)F)cc2)nn(-c2cccnc2)c1=O` [Example 112, 3-Oxo-2-(pyridin-3-yl)-N-[(2R)-1,1,1-trifluoro-3-hydroxypropan-2-yl]-6-[4-(trifluoromethyl)phenyl]-2,3-dihydropyridazine-4-carboxamide], for which the results for the IC50 in test [1], in test [2] and in test [3] were 0.905 nM, above 20000 nM and 1.15 nM, respectively.

Turning to `CC(C)(O)CNC(=O)c1cc(-c2ccc(C(F)(F)F)cc2)nn(-c2cccnc2)c1=O` [Example 115, N-(2-Hydroxy-2-methylpropyl)-3-oxo-2-(pyridin-3-yl)-6-[4-(trifluoromethyl)phenyl]-2,3-dihydropyridazine-4-carboxamide], the IC50 in test [1] was 10.9 nM; in test [2], above 20000 nM; in test [3], 2.63 nM.

For `O=C(N[C@H]1COC[C@@H]1O)c1cc(-c2ccc(Cl)cc2)nn(-c2cccnc2)c1=O` (single isomer, unassigned; enantiomer 2) [Example 170, 6-(4-Chlorophenyl)-N-[(trans)-4-hydroxytetrahydrofuran-3-yl]-3-oxo-2-(pyridin-3-yl)-2,3-dihydropyridazine-4-carboxamide, Enantiomer 2], the values for the IC50 in test [1], in test [2] and in test [3] were 22.4 nM, above 20000 nM and 57.3 nM, respectively.

Values taken from patent US12522594B2, “2-heteroaryl-3-oxo-2,3-dihydropyridazine-4-carboxamides for the treatment of cancer” (Deutsches Krebsforschungszentrum, priority 2017, dated 2026).
